Key:
[1] = target: T1, JAK1 (Homo sapiens, UniProt P23458); experiment: JAK biochemical microfluidic assay (Caliper EZ Reader), JAK1; details: 1 mM ATP; head prints (5 nM)
T1 construct: purchased Carna Biosciences
Description: (§1) JAK activity was determined in the reaction buffer 50 mM HEPES, 0.01% Brij35, 10 mM MgCl2, 2 mM DTT by a microfluidic assay. The phosphorylation of a FAM labeled peptide substrate was monitored in the Caliper EZ Reader II (Perkin Elmer). The assay condition for each batch of enzyme (Carna Biosciences) was optimized to obtain 10% conversion rate of peptide substrate.
(§2) The test compounds were dissolved in DMSO to a stock concentration of 10 mM. Three-fold serially diluted compounds with top concentration of 5 μM were pre-incubated with JAK1, JAK2 or TYK2 for 10 min at ambient temperature. The final DMSO concentration of assay mixture was 1%. […] The reaction was stopped by adding 50 mM EDTA.
(§3) The percent inhibition was calculated by the following formula. % Inhibition=(Conversionmax−Conversionsample)/(Conversionmax−Conversionmin)*100 Conversionmax means the conversion rate in the positive well without addition of compound • […] means the conversion rate in the well without addition of enzyme • Conversionsample means the conversion rate of test compounds
(§4) The dose-response (percent inhibition) curve was plotted and IC50 values were determined by GraphPad software.

[2] = target: T2, JAK2 (Homo sapiens, UniProt O60674); experiment: JAK biochemical microfluidic assay (Caliper EZ Reader), JAK2; details: 1 mM ATP; head prints (0.25 nM)
T2 construct: purchased Carna Biosciences
Description: as §1, §2, §3, §4

T1 sequence (P23458 whole entry): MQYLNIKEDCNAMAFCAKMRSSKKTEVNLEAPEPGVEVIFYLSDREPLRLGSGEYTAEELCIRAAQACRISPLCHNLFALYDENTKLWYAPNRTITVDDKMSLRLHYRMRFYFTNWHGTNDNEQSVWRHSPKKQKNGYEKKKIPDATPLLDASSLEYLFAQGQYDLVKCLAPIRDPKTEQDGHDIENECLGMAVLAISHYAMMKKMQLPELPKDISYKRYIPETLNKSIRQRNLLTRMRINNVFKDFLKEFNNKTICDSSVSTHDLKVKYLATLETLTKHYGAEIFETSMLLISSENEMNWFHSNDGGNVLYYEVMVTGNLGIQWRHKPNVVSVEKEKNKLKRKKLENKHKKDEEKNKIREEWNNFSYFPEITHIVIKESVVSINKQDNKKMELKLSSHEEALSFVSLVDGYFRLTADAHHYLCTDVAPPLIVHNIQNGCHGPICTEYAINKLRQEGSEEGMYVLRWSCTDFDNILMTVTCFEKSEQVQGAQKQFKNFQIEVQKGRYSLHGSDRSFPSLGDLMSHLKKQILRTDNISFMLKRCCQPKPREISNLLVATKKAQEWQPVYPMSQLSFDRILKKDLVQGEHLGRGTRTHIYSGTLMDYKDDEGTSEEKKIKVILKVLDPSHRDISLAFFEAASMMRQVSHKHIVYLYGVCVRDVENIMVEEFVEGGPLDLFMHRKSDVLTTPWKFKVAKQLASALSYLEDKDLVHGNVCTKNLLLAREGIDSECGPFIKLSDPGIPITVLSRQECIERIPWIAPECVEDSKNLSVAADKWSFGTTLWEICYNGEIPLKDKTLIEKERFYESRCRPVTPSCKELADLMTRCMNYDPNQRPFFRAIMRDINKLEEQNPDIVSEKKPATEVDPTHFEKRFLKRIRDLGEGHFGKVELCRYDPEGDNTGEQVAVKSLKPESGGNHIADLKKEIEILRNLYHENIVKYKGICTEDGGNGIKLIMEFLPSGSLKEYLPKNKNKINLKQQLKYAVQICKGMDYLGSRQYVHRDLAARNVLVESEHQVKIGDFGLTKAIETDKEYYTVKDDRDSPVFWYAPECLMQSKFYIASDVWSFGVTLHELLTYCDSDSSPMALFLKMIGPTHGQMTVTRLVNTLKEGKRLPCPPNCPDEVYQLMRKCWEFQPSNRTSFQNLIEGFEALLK
T2 sequence (O60674 whole entry): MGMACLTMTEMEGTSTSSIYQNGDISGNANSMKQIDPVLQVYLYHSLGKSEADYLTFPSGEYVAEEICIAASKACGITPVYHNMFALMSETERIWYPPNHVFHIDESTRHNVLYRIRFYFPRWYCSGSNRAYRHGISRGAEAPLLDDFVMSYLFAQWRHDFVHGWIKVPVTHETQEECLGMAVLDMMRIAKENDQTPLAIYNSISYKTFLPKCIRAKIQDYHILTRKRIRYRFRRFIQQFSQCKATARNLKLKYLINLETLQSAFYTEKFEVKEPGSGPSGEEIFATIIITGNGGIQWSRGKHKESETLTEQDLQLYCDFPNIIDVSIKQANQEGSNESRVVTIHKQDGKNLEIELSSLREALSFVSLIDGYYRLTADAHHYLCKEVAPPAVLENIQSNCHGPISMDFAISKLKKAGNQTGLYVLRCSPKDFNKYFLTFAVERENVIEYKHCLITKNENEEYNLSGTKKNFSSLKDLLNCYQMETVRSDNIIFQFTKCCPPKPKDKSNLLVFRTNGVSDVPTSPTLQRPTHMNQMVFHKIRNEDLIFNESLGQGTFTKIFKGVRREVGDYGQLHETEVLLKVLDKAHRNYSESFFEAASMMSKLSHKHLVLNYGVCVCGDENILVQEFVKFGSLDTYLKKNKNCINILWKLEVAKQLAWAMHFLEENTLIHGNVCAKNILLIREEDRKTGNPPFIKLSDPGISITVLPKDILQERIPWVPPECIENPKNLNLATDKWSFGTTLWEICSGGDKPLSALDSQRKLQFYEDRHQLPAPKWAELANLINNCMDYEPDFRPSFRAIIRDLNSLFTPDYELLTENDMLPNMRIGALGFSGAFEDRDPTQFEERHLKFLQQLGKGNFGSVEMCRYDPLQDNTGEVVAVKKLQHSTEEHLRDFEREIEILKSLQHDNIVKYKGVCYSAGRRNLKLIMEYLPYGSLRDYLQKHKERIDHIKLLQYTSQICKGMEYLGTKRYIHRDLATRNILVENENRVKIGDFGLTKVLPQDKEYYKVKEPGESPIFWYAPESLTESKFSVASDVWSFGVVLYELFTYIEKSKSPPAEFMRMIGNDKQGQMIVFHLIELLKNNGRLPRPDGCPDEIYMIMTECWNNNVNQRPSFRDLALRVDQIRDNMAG

| IC50 [1] | IC50 [2] | SMILES |
| --- | --- | --- |
| 278 nM |  | NC12CC(n3cnc4cnc5[nH]ccc5c43)(C1)C2 [Example 1j, 3-(Imidazo[4,5-d]pyrrolo[2,3-b]pyridin-1(6H)-yl)bicyclo[1.1.1]pentan-1-amine 2,2,2-trifluoroacetate] |
| 2570 nM | > 5000 nM | N[C@H]1C[C@@H](n2cnc3cnc4[nH]ccc4c32)C1 [Example 2e, Cis-3-(imidazo[4,5-d]pyrrolo[2,3-b]pyridin-1(6H)-yl)cyclobutanamine 2,2,2-trifluoroacetate] |
| 47.4 nM | 328 nM | CC(C)CC(=O)NC12CC(n3cnc4cnc5[nH]ccc5c43)(C1)C2 [Example 8, N-(3-(Imidazo[4,5-d]pyrrolo[2,3-b]pyridin-1(6H)-yl)bicyclo[1.1.1]pentan-1-yl)-3-methylbutanamide] |
| 58.7 nM | 441 nM | CCCC(=O)NC12CC(n3cnc4cnc5[nH]ccc5c43)(C1)C2 [Example 9, N-(3-(imidazo[4,5-d]pyrrolo[2,3-b]pyridin-1(6H)-yl)bicyclo[1.1.1]pentan-1-yl)butyramide] |
| 165 nM | 868 nM | CC(C)COC(=O)NC12CC(n3cnc4cnc5[nH]ccc5c43)(C1)C2 [Example 10, Isobutyl (3-(imidazo[4,5-d]pyrrolo[2,3-b]pyridin-1(6H)-yl)bicyclo[1.1.1]pentan-1-yl)carbamate] |
| 11.7 nM | 166 nM | N#CCC(=O)NC12CC(n3cnc4cnc5[nH]ccc5c43)(C1)C2 [Example 11, 2-Cyano-N-(3-(imidazo[4,5-d]pyrrolo[2,3-b]pyridin-1(6H)-yl)bicyclo[1.1.1]pentan-1-yl)acetamide] |
| 35.5 nM |  | O=C(NC12CC(n3cnc4cnc5[nH]ccc5c43)(C1)C2)C1CC1 [Example 12, N-(3-(Imidazo[4,5-d]pyrrolo[2,3-b]pyridin-1(6H)-yl)bicyclo[1.1.1]pentan-1-yl)cyclopropanecarboxamide] |
| 82.6 nM |  | O=C(NC12CC(n3cnc4cnc5[nH]ccc5c43)(C1)C2)c1ccc(Cl)cc1 [Example 15, 4-Chloro-N-(3-(imidazo[4,5-d]pyrrolo[2,3-b]pyridin-1(6H)-yl)bicyclo[1.1.1]pentan-1-yl)benzamide] |
| 64 nM |  | CC(C)OC(=O)NC12CC(n3cnc4cnc5[nH]ccc5c43)(C1)C2 [Example 16, Isopropyl (3-(imidazo[4,5-d]pyrrolo[2,3-b]pyridin-1(6H)-yl)bicyclo[1.1.1]pentan-1-yl)carbamate] |
| 51.3 nM | 578 nM | O=C(NC12CC(n3cnc4cnc5[nH]ccc5c43)(C1)C2)OCC1CC1 [Example 19, Cyclopropylmethyl (3-(imidazo[4,5-d]pyrrolo[2,3-b]pyridin-1(6H)-yl)bicyclo[1.1.1]pentan-1-yl)carbamate] |
| 14.2 nM | 326 nM | COC1CN(S(=O)(=O)NC23CC(n4cnc5cnc6[nH]ccc6c54)(C2)C3)C1 [Example 21, N-(3-(imidazo[4,5-d]pyrrolo[2,3-b]pyridin-1(6H)-yl)bicyclo[1.1.1]pentan-1-yl)-3-methoxyazetidine-1-sulfonamide] |
| 23 nM |  | CN(C)S(=O)(=O)NC12CC(n3cnc4cnc5[nH]ccc5c43)(C1)C2 [Example 24, N-(3-(imidazo[4,5-d]pyrrolo[2,3-b]pyridin-1(6H)-yl)bicyclo[1.1.1]pentan-1-yl)-N′-dimethyl-1-sulfonamide] |
| 26.1 nM |  | CCN(C)S(=O)(=O)NC12CC(n3cnc4cnc5[nH]ccc5c43)(C1)C2 [Example 25, N-(3-(imidazo[4,5-d]pyrrolo[2,3-b]pyridin-1(6H)-yl)bicyclo[1.1.1]pentan-1-yl)-N′-methyl-N′-ethyl-1-sulfonamide] |
| 26.2 nM | 849 nM | COCCCS(=O)(=O)NC12CC(n3cnc4cnc5[nH]ccc5c43)(C1)C2 [Example 26, N-(3-(Imidazo[4,5-d]pyrrolo[2,3-b]pyridin-1(6H)-yl)bicyclo[1.1.1]pentan-1-yl)-3-methoxypropane-1-sulfonamide] |
| 20.2 nM | 291 nM | CCS(=O)(=O)NC12CC(n3cnc4cnc5[nH]ccc5c43)(C1)C2 [Example 27, N-(3-(imidazo[4,5-d]pyrrolo[2,3-b]pyridin-1(6H)-yl)bicyclo[1.1.1]pentan-1-yl)ethanesulfonamide] |
| 90.5 nM | 992 nM | Cn1cc(S(=O)(=O)NC23CC(n4cnc5cnc6[nH]ccc6c54)(C2)C3)cn1 [Example 29, N-(3-(imidazo[4,5-d]pyrrolo[2,3-b]pyridin-1(6H)-yl)bicyclo[1.1.1]pentan-1-yl)-1-methyl-1H-pyrazole-4-sulfonamide] |

| IC50 [1] | IC50 [2] | SMILES |
| --- | --- | --- |
| 25.5 nM | 226 nM | CC(C)S(=O)(=O)NC12CC(n3cnc4cnc5[nH]ccc5c43)(C1)C2 [Example 30, N-(3-(imidazo[4,5-d]pyrrolo[2,3-b]pyridin-1(6H)-yl)bicyclo[1.1.1]pentan-1-yl)propane-2-sulfonamide] |
| 14.4 nM | 146 nM | N#CCS(=O)(=O)NC12CC(n3cnc4cnc5[nH]ccc5c43)(C1)C2 [Example 33, 1-Cyano-N-(3-(imidazo[4,5-d]pyrrolo[2,3-b]pyridin-1(6H)-yl)bicyclo[1.1.1]pentan-1-yl)methanesulfonamide] |
| 25.4 nM | 199 nM | CCCNC(=O)NC12CC(n3cnc4cnc5[nH]ccc5c43)(C1)C2 [Example 34, 1-(3-(Imidazo[4,5-d]pyrrolo[2,3-b]pyridin-1(6H)-yl)bicyclo[1.1.1]pentan-1-yl)-3-propylurea] |
| 235 nM |  | O=C(NC1CC1)NC12CC(n3cnc4cnc5[nH]ccc5c43)(C1)C2 [Example 35, 1-Cyclopropyl-3-(3-(imidazo[4,5-d]pyrrolo[2,3-b]pyridin-1(6H)-yl)bicyclo[1.1.1]pentan-1-yl)urea] |
| 49.5 nM |  | CC(C)CNC(=O)NC12CC(n3cnc4cnc5[nH]ccc5c43)(C1)C2 [Example 36, 1-(3-(Imidazo[4,5-d]pyrrolo[2,3-b]pyridin-1(6H)-yl)bicyclo[1.1.1]pentan-1-yl)-3-isobutylurea] |
| 101 nM | 678 nM | O=C(NC12CC(n3cnc4cnc5[nH]ccc5c43)(C1)C2)N1CC(F)(F)C1 [Example 37, 3,3-Difluoro-N-(3-(imidazo[4,5-d]pyrrolo[2,3-b]pyridin-1(6H)-yl)bicyclo[1.1.1]pentan-1-yl)azetidine-1-carboxamide] |
| 389 nM | 3300 nM | COC1CN(C(=O)NC23CC(n4cnc5cnc6[nH]ccc6c54)(C2)C3)C1 [Example 38, N-(3-(Imidazo[4,5-d]pyrrolo[2,3-b]pyridin-1(6H)-yl)bicyclo[1.1.1]pentan-1-yl)-3-methoxyazetidine-1-carboxamide] |
| 68.7 nM | 526 nM | N#CC1CCN(C(=O)NC23CC(n4cnc5cnc6[nH]ccc6c54)(C2)C3)C1 (centres unmarked) [Example 39, 3-Cyano-N-(3-(imidazo[4,5-d]pyrrolo[2,3-b]pyridin-1(6H)-yl)bicyclo[1.1.1]pentan-1-yl)pyrrolidine-1-carboxamide] |
| 49.4 nM | 355 nM | CC(C)(C#N)CNC(=O)NC12CC(n3cnc4cnc5[nH]ccc5c43)(C1)C2 [Example 40, 1-(2-Cyano-2-methylpropyl)-3-(3-(imidazo[4,5-d]pyrrolo[2,3-b]pyridin-1(6H)-yl)bicyclo[1.1.1]pentan-1-yl)urea] |
| 142 nM | 965 nM | CC(C)(C#N)COC(=O)NC12CC(n3cnc4cnc5[nH]ccc5c43)(C1)C2 [Example 42, 2-Cyano-2-methylpropyl (3-(imidazo[4,5-d]pyrrolo[2,3-b]pyridin-1(6H)-yl)bicyclo[1.1.1]pentan-1-yl)carbamate] |
| 15.6 nM | 223 nM | N#CCCNC(=O)NC12CC(n3cnc4cnc5[nH]ccc5c43)(C1)C2 [Example 43, 1-(2-Cyanoethyl)-3-(3-(imidazo[4,5-d]pyrrolo[2,3-b]pyridin-1(6H)-yl)bicyclo[1.1.1]pentan-1-yl)urea] |
| 159 nM | 604 nM | CNS(=O)(=O)C[C@H]1C[C@@H](n2cnc3cnc4[nH]ccc4c32)C1 [Example 44, 1-(Cis-3-(imidazo[4,5-d]pyrrolo[2,3-b]pyridin-1(6H)-yl)cyclobutyl)-N-methylmethanesulfonamide] |
| 15.7 nM | 170 nM | N#CC1CN(S(=O)(=O)C[C@H]2C[C@@H](n3cnc4cnc5[nH]ccc5c43)C2)C1 [Example 45, 1-(((Cis-3-(imidazo[4,5-d]pyrrolo[2,3-b]pyridin-1(6H)-yl)cyclobutyl)methyl)sulfonyl) azetidine-3-carbonitrile] |
| 48.7 nM | 1110 nM | CCCS(=O)(=O)NC12CC(n3c([C@@H](C)O)nc4cnc5[nH]ccc5c43)(C1)C2 [Example 47, (R)—N-(3-(2-(1-hydroxyethyl)imidazo[4,5-d]pyrrolo[2,3-b]pyridin-1(6H)-yl)bicyclo[1.1.1]pentan-1-yl)propane-1-sulfonamide] |
| 13 nM | 244 nM | CCCS(=O)(=O)NC12CC(n3c(C)nc4cnc5[nH]ccc5c43)(C1)C2 [Example 48, N-(3-(2-methylimidazo[4,5-d]pyrrolo[2,3-b]pyridin-1(6H)-yl)bicyclo[1.1.1]pentan-1-yl)propane-1-sulfonamide] |
| > 5000 nM | > 5000 nM | CCCS(=O)(=O)NC12CC(N(C)c3ncnc4[nH]ccc34)(C1)C2 [Example 49, N-(3-(Methyl(7H-pyrrolo[2,3-d]pyrimidin-4-yl)amino)bicyclo[1.1.1]pentan-1-yl)propane-1-sulfonamide] |
